From patent publication US5773411A, “Cyclic compounds linked by a heterocyclic ring useful as inhibitors of platelet glycoprotein IIB/IIIA” (The DuPont Merck Pharmaceutical Company, priority 1994, dated 1998) come the findings set out here.

A word on the IC50: it is the concentration that inhibits the measured activity by half. A lower IC50 goes with greater potency.

The test system of the assay is agonist-induced platelet aggregation in platelet-rich plasma (PRP). The experiment in a line: Platelet Aggregation Assay. It counts as cell-based. To be noted: human PRP; agonists ADP, collagen, arachidonate, epinephrine, thrombin; compound added prior to activation of the platelets. The protocol: Platelet Aggregation Assay
Venous blood was obtained from the arm of a healthy human donor who was drug-free and aspirin-free for at least two weeks prior to blood collection. Blood was collected into 10 ml citrated Vacutainer tubes. The blood was centrifuged for 15 minutes at 150×g at room temperature, and platelet-rich plasma (PRP) was removed. The remaining blood was centrifuged for 15 minutes at 1500×g at room temperature, and platelet-poor plasma (PPP) was removed. Samples were assayed on a aggregometer (PAP-4 Platelet Aggregation Profiler), using PPP as the blank (100% transmittance). 200 μl of PRP was added to each micro test tube, and transmittance was set to 0%. 20 μl of various agonists (ADP, collagen, arachidonate, epinephrine, thrombin) were added to each tube, and the aggregation profiles were plotted (% transmittance versus time). The results were expressed as % inhibition of agonist-induced platelet aggregation. For the IC50 evaluation, the test compounds were added at various concentrations prior to the activation of the platelets.
`CC(C)[C@H]1NC(=O)C2=CC=C(CNC(=O)[C@H](CC(=O)O)NC(=O)CNC(=O)[C@H](CCCNC(=N)N)N(C)C1=O)O2` [Example 1, cyclo-(D-Val-N(Me)Arg-Gly-Asp-[5-aminomethyl]-2-furoate)] yielded a 50% inhibitory concentration (IC50) below 1000 nM. In the case of `CC(C)[C@H]1NC(=O)c2cccc(n2)CNC(=O)[C@H](CC(=O)O)NC(=O)CNC(=O)[C@H](CCCNC(=N)N)N(C)C1=O` [Example 3, cyclo(6-(D-Val-NMeArg-Gly-Asp)aminomethyl-2-pyridinecarboxylate)] it was 1000 to 10000 nM; in that of “cyclo-(D-Val-N(Me)Arg-Gly-Asp-[2-amino]-4-thiazoleacetate) [Example 4]”, below 1000 nM.
